Data from PubChem BioAssay AID330 (DTP/NCI, 2004).
Values joined by “and” are separate entries in the source; they are usually repeats but may differ in a detail not shown here. Equal entries are not always repeated. Toxic doses and inconclusive results are not listed.

System: P388 leukemia ip, CD2F1 mice, survival T/C
Assay: NCI In Vivo Anticancer Drug Screen. Data for tumor model P388 Leukemia (intraperitoneal) in CD2F1 (CDF1) mice
Details: endpoint: median survival time, higher = longer survival
Outline: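 Mice carrying the transplanted tumor received test compound or vehicle. Survival was recorded in each group, and the value is the treated-group measurement divided by that of the vehicle-treated control group.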

[1] = dose: 50.0 mg/kg/injection, schedule: Q01DX009 (ip), vehicle: saline
[2] = dose: 100.0 mg/kg/injection, schedule: Q01DX009 (ip), vehicle: saline
[3] = dose: 200.0 mg/kg/injection, schedule: Q01DX009 (ip), vehicle: saline
[4] = dose: 6.25 mg/kg/injection, schedule: Q04DX003 (ip), vehicle: saline
[5] = dose: 50.0 mg/kg/injection, schedule: Q01DX005 (ip), vehicle: saline with Tween-80
[6] = dose: 100.0 mg/kg/injection, schedule: Q01DX005 (ip), vehicle: saline with Tween-80
[7] = dose: 200.0 mg/kg/injection, schedule: Q01DX005 (ip), vehicle: saline with Tween-80
[8] = dose: 100.0 mg/kg/injection, schedule: Q01DX009 (ip), vehicle: saline with Tween-80
[9] = dose: 50.0 mg/kg/injection, schedule: Q01DX005 (ip), vehicle: Klucel (hydroxypropylcellulose) (HPC)
[10] = dose: 100.0 mg/kg/injection, schedule: Q01DX005 (ip), vehicle: Klucel (hydroxypropylcellulose) (HPC)
[11] = dose: 200.0 mg/kg/injection, schedule: Q01DX005 (ip), vehicle: Klucel (hydroxypropylcellulose) (HPC)
[12] = dose: 60.0 mg/kg/injection, schedule: Q01DX005 (ip), vehicle: saline with Tween-80
[13] = dose: 120.0 mg/kg/injection, schedule: Q01DX005 (ip), vehicle: saline with Tween-80

C[CH2][Ge]([CH2]C)[CH2]C.C[CH2][Ge]([Cl])[CH2]C.C[CH2][Ge][CH2]C
T/C [1]: 104 % of control
T/C [2]: 103 % of control
T/C [3]: 103 % of control

COCCOP(=O)(N1CC1)N1CC1
T/C [4]: 118 % of control
T/C (dose: 25.0 mg/kg/injection, schedule: Q01DX009 (ip), vehicle: saline): 181 % of control
T/C (dose: 25.0 mg/kg/injection, schedule: Q04DX003 (ip), vehicle: saline): 177 % of control
T/C (dose: 33.0 mg/kg/injection, schedule: Q04DX003 (ip), vehicle: saline): 150 % of control
T/C [1]: 122 % of control
T/C (dose: 50.0 mg/kg/injection, schedule: Q04DX003 (ip), vehicle: saline): 175 % of control and 190 % of control
T/C (dose: 75.0 mg/kg/injection, schedule: Q04DX003 (ip), vehicle: saline): 120 % of control

O=C(N/N=C/c1cccc(O)c1O)c1ccccc1
T/C [5]: 104 % of control
T/C [6]: 109 % of control
T/C [7]: 119 % of control

COC(=O)/C=C1\C(=O)OC2(C)CCCCC12 (centres undefined)
T/C (dose: 50.0 mg/kg/injection, schedule: Q01DX009 (ip), vehicle: saline with Tween-80): 95 % of control
T/C [8]: 97 % of control
T/C (dose: 200.0 mg/kg/injection, schedule: Q01DX009 (ip), vehicle: saline with Tween-80): 100 % of control

Cc1onc(-c2c(F)cccc2Cl)c1C(=O)N[C@@H]1C(=O)N2[C@@H]1SC(C)(C)[C@@H]2C(=O)O
T/C [1]: 102 % of control
T/C [2]: 105 % of control
T/C [3]: 107 % of control

N=C(N)COc1ccccc1
T/C (dose: 12.5 mg/kg/injection, schedule: Q01DX005 (ip), vehicle: saline): 95 % of control
T/C (dose: 25.0 mg/kg/injection, schedule: Q01DX005 (ip), vehicle: saline): 95 % of control
T/C (dose: 50.0 mg/kg/injection, schedule: Q01DX005 (ip), vehicle: saline): 99 % of control and 101 % of control

COc1cc2c(cc1OC)[C@@H](CO)[C@H]1c3cc4c(cc3CCN1C2)OCO4
T/C (dose: 50.0 mg/kg/injection, schedule: Q04DX003 (ip), vehicle: distilled water + Tween-80): 106 % of control and 115 % of control
T/C (dose: 100.0 mg/kg/injection, schedule: Q04DX003 (ip), vehicle: distilled water + Tween-80): 100 % of control and 98 % of control
T/C (dose: 200.0 mg/kg/injection, schedule: Q04DX003 (ip), vehicle: distilled water + Tween-80): 105 % of control and 120 % of control

C=CCN1c2c(nc(N)[nH]c2=O)NCC1CNc1ccc(C(=O)NC(CCC(=O)O)C(=O)O)cc1 (centres undefined)
T/C (dose: 50.0 mg/kg/injection, schedule: Q04DX003 (ip), vehicle: alkali diluted with saline): 113 % of control
T/C (dose: 100.0 mg/kg/injection, schedule: Q04DX003 (ip), vehicle: alkali diluted with saline): 95 % of control
T/C (dose: 200.0 mg/kg/injection, schedule: Q04DX003 (ip), vehicle: alkali diluted with saline): 111 % of control

COc1cncn2nc(C)nc12
T/C (dose: 60.0 mg/kg/injection, schedule: Q01DX005 (ip), vehicle: saline): 100 % of control
T/C (dose: 120.0 mg/kg/injection, schedule: Q01DX005 (ip), vehicle: saline): 99 % of control
T/C (dose: 240.0 mg/kg/injection, schedule: Q01DX005 (ip), vehicle: saline): 93 % of control

O=C(O)Cc1cn2cc(Br)ccc2n1
T/C (dose: 100.0 mg/kg/injection, schedule: Q01DX001 (ip), vehicle: saline with Tween-80): 105 % of control
T/C (dose: 200.0 mg/kg/injection, schedule: Q01DX001 (ip), vehicle: saline with Tween-80): 109 % of control
T/C (dose: 400.0 mg/kg/injection, schedule: Q01DX001 (ip), vehicle: saline with Tween-80): 104 % of control

CCOC(=O)CNC(=O)C(CS)NC(=O)C(CSC(c1ccccc1)c1ccccc1)NC(=O)OCc1ccccc1 (centres undefined)
T/C [9]: 97 % of control
T/C [10]: 99 % of control
T/C [11]: 103 % of control

C[Si](C)(C)S[Si](C)(C)C
T/C (dose: 50.0 mg/kg/injection, schedule: Q01DX009 (ip), vehicle: Klucel (hydroxypropylcellulose) (HPC)): 106 % of control
T/C (dose: 100.0 mg/kg/injection, schedule: Q01DX009 (ip), vehicle: Klucel (hydroxypropylcellulose) (HPC)): 100 % of control

OCc1c(-c2ccc(Cl)cc2)c(-c2ccc(Cl)cc2)c2n1CCC2
T/C [9]: 92 % of control
T/C [10]: 92 % of control
T/C [11]: 92 % of control

CCC(c1ccc(OC)cc1)C(NCC(=O)NNC(=O)CNC(c1ccc(OC)cc1)C(CC)c1ccc(OC)cc1)c1ccc(OC)cc1 (centres undefined)
T/C (dose: 200.0 mg/kg/injection, schedule: Q04DX002 (ip), vehicle: saline with Tween-80): 86 % of control
T/C (dose: 400.0 mg/kg/injection, schedule: Q04DX002 (ip), vehicle: saline with Tween-80): 92 % of control

CC1(C)OC(=O)ON(C(c2ccccc2)c2ccccc2)C1=O
T/C [12]: 101 % of control
T/C [13]: 108 % of control

O=[N+]([O-])c1oc2ccc3ccccc3c2c1CCO
T/C [12]: 97 % of control
T/C [13]: 110 % of control
T/C (dose: 240.0 mg/kg/injection, schedule: Q01DX005 (ip), vehicle: saline with Tween-80): 117 % of control

O=C(c1ccc(Cl)cc1)n1c(Cl)c(/C=N\Nc2ccc([N+](=O)[O-])cc2)c2ccccc21
T/C (dose: 100.0 mg/kg/injection, schedule: Q04DX003 (ip), vehicle: saline with Tween-80): 94 % of control
T/C (dose: 200.0 mg/kg/injection, schedule: Q04DX003 (ip), vehicle: saline with Tween-80): 97 % of control
T/C (dose: 400.0 mg/kg/injection, schedule: Q04DX003 (ip), vehicle: saline with Tween-80): 92 % of control

C/C(=N\NC(=S)Nc1nccs1)c1ccccn1
T/C (dose: 100.0 mg/kg/injection, schedule: Q04DX003 (ip), vehicle: Klucel (hydroxypropylcellulose) (HPC)): 99 % of control
T/C (dose: 200.0 mg/kg/injection, schedule: Q04DX003 (ip), vehicle: Klucel (hydroxypropylcellulose) (HPC)): 105 % of control
T/C (dose: 400.0 mg/kg/injection, schedule: Q04DX003 (ip), vehicle: Klucel (hydroxypropylcellulose) (HPC)): 96 % of control

O=C1CSC(c2ccoc2)N1N1C(=O)CSC1c1ccoc1 (centres undefined)
T/C [5]: 90 % of control
T/C [6]: 87 % of control
T/C [7]: 90 % of control

O=C1OCCC1C(O)c1ccccc1 (centres undefined)
T/C (dose: 25.0 mg/kg/injection, schedule: Q01DX009 (ip), vehicle: other): 110 % of control
T/C (dose: 50.0 mg/kg/injection, schedule: Q01DX009 (ip), vehicle: other): 102 % of control
T/C (dose: 100.0 mg/kg/injection, schedule: Q01DX009 (ip), vehicle: other): 110 % of control
T/C (dose: 200.0 mg/kg/injection, schedule: Q01DX009 (ip), vehicle: other): 107 % of control
T/C (dose: 400.0 mg/kg/injection, schedule: Q01DX009 (ip), vehicle: other): 111 % of control

Cc1cc(OC(=O)c2ccccc2OS(N)(=O)=O)ccc1Cl
T/C (dose: 60.0 mg/kg/injection, schedule: Q01DX005 (ip), vehicle: Klucel (hydroxypropylcellulose) (HPC)): 98 % of control
T/C (dose: 120.0 mg/kg/injection, schedule: Q01DX005 (ip), vehicle: Klucel (hydroxypropylcellulose) (HPC)): 97 % of control
T/C (dose: 240.0 mg/kg/injection, schedule: Q01DX005 (ip), vehicle: Klucel (hydroxypropylcellulose) (HPC)): 94 % of control

CC1(C)CC(=O)NC(=O)N1
T/C [5]: 99 % of control
T/C [6]: 94 % of control
T/C [7]: 104 % of control

NC(=O)/C(N=Nc1ccccc1I)=N\Nc1ccccc1I
T/C [9]: 97 % of control
T/C [10]: 98 % of control
T/C [11]: 97 % of control

CC(C)=CC[P+](C)(c1ccccc1)c1ccccc1
T/C (dose: 1.56 mg/kg/injection, schedule: Q04DX003 (ip), vehicle: saline): 101 % of control
T/C (dose: 3.13 mg/kg/injection, schedule: Q04DX003 (ip), vehicle: saline): 100 % of control
T/C [4]: 89 % of control

CCN(CCOC(=O)Nc1ccc(Cl)cc1)C(=O)Nc1ccc(Cl)cc1
T/C (dose: 60.0 mg/kg/injection, schedule: Q01DX005 (ip), vehicle: Klucel + Tween-80): 90 % of control
T/C (dose: 120.0 mg/kg/injection, schedule: Q01DX005 (ip), vehicle: Klucel + Tween-80): 87 % of control
T/C (dose: 240.0 mg/kg/injection, schedule: Q01DX005 (ip), vehicle: Klucel + Tween-80): 87 % of control

C=CC(=O)NCNC(=O)C=C
T/C [8]: 172 % of control
T/C (dose: 132.0 mg/kg/injection, schedule: Q04DX003 (ip), vehicle: saline with Tween-80): 118 % of control
T/C (dose: 200.0 mg/kg/injection, schedule: Q04DX003 (ip), vehicle: saline sonified): 159 % of control
T/C (dose: 300.0 mg/kg/injection, schedule: Q04DX003 (ip), vehicle: saline with Tween-80): 181 % of control

COC1=C(C)C(=O)c2c(c(COC(N)=O)c3n2CC2C3N2C)C1=O (centres undefined)
T/C (dose: 6.25 mg/kg/injection, schedule: Q04DX003 (ip), vehicle: saline with Tween-80): 100 % of control
T/C (dose: 12.5 mg/kg/injection, schedule: Q04DX003 (ip), vehicle: saline with Tween-80): 90 % of control
